In patent publication US5767088A, “Tachykinin antagonists” (Warner-Lambert Company, priority 1996, dated 1998) one finds Kd, Kb and IC50 data, which are given here for 17 compounds.

The first assay deals with T1, NK3 (Cavia porcellus, UniProt P30098).
T1 sequence (P30098 1-440): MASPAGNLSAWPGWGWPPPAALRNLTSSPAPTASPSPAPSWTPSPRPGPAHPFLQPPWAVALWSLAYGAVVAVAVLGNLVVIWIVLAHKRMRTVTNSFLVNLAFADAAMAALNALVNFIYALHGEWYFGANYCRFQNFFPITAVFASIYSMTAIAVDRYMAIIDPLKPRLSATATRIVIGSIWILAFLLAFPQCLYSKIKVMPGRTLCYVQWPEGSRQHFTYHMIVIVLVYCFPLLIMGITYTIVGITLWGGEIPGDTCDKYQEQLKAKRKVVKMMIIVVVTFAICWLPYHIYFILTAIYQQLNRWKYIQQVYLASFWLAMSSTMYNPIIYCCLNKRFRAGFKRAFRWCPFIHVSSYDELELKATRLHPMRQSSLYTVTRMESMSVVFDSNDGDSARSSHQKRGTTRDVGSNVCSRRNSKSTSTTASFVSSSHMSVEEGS
The assay is described as follows: guinea pig medial habenula assay (block of senktide-induced increases in firing rate, brain slice). It counts as cell-based. The arrangement: guinea pig medial habenula neurones in a brain slice preparation in vitro; from tissue; host or cells: guinea pig medial habenula brain slice. Conditions: NK3 antagonist activity; mean equilibrium constant against senktide; brain slice in vitro; read-out: Guinea Pig Medial Habenula (Ke).
Regarding `CC(C)(C)OC(=O)N[C@@H](Cc1ccccc1)C(=O)N[C@](C)(Cc1ccccc1)C(=O)NCCCCCCCCC(N)=O` [Example 2, D-Phenylalaninamide, N-[(1,1-dimethylethoxy)carbonyl]-L-phenylalanyl-N-(9-amino-9-oxononyl)-α-methyl-], the Kd stood at 25 nM.

The target in a further assay is T1, NK3. In words: guinea pig ileum assay (Schild analysis of contractile responses). It counts as cell-based. The arrangement: in vitro peripheral guinea pig ileum assay; from tissue; host or cells: guinea pig ileum (organ bath). Conditions: NK3 antagonist activity; antagonist dissociation constant by Schild analysis.
Take `CC(C)(C)OC(=O)N[C@@H](Cc1ccccc1)C(=O)N[C@](C)(Cc1ccccc1)C(=O)NCCCCCCCCC(N)=O` [Example 2, D-Phenylalaninamide, N-[(1,1-dimethylethoxy)carbonyl]-L-phenylalanyl-N-(9-amino-9-oxononyl)-α-methyl-]: the Kb (in general, the affinity of an antagonist, worked out from how it opposes an agonist) amounted to 10 nM.

The next assay has as its target T2, NK3 receptor (Homo sapiens, UniProt P29371).
T2 construct: host or cells: Chinese hamster ovary cells (membranes)
T2 sequence (P29371 1-465): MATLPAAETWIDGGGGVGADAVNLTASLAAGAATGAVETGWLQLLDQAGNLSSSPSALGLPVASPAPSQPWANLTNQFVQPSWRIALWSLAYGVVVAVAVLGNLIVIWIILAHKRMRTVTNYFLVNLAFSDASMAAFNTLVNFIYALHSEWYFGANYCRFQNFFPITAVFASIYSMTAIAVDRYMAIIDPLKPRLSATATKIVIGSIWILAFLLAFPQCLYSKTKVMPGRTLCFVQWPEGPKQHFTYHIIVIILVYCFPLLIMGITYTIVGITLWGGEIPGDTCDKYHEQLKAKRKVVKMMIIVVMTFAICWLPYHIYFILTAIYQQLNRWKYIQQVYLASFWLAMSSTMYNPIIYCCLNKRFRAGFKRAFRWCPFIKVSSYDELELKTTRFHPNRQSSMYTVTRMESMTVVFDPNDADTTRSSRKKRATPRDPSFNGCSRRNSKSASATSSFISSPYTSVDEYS
In words: NK3 receptor binding assay, [125I]-[MePhe7]neurokinin B, Chinese hamster ovary cell membranes. As to conditions: competition with [125I]-[MePhe7]neurokinin B 40-100 pM, 90 minutes at 22° C., CHO cell membranes.
Turning to `CC(C)(C)OC(=O)N[C@@H](Cc1ccccc1)C(=O)NC(C)(Cc1ccccc1)C(=O)NCCC1CCCC1` (mixture of isomers) [Example 11, DL-Phenylalaninamide, N-[(1,1-dimethylethoxy)carbonyl]-L-phenylalanyl-N-(2-cyclopentylethyl)-α-methyl-], the IC50 (in general, the concentration needed to halve the response being measured) is 129 nM.
Turning to `CC(Cc1ccccc1)(NC(=O)[C@H](Cc1ccccc1)NC(=O)OCc1ccc(Cl)c(Cl)c1)C(N)=O` (mixture of isomers) [Example 18, DL-Phenylalaninamide, N-[[(3,4-dichlorophenyl)-methoxy]carbonyl]-L-phenylalanyl-α-methyl-], the concentration for half-maximal inhibition (IC50) amounted to 1530 nM.
Turning to “DL-Phenylalaninamide, N-[[(octahydro-2-naphthalenyl)-oxy]carbonyl]-L-phenylalanyl-α-methyl [Example 19]”, the concentration for half-maximal inhibition (IC50) turned out to be 3060 nM.
Take `CC(C)(C)OC(=O)N[C@@H](Cc1ccccc1)C(=O)NC(C)(Cc1ccccc1)C(=O)NCCCCCc1ccccc1` (mixture of isomers) [Example 6, DL-Phenylalaninamide, N-[(1,1-dimethylethoxy)carbonyl]-L-phenylalanyl-α-methyl-N-(5-phenylpentyl)-]: the IC50 came out at 77 nM.
The same measure, in the same setting: the value for `CC(C)(C)OC(=O)N[C@@H](Cc1ccccc1)C(=O)NC(C)(Cc1ccccc1)C(=O)NC1CCCC1` (mixture of isomers) [Example 7, DL-Phenylalaninamide, N-[(1,1-dimethylethoxy)carbonyl]-L-phenylalanyl-N-cyclopentyl-α-methyl-] was 556 nM; that for `CC(C)(C)OC(=O)N[C@@H](Cc1ccccc1)C(=O)NC(C)(Cc1ccccc1)C(=O)NCCCc1ccc(O)cc1` (mixture of isomers) [Example 4, DL-Phenylalaninamide, N-[(1,1-dimethylethoxy)carbonyl]-L-phenylalanyl-N-[3-(4-hydroxyphenyl)propyl]-α-methyl-] was 88 nM.
The same measure, in the same setting: the value for `CC(Cc1ccccc1)(NC(=O)[C@H](Cc1ccccc1)NC(=O)OCC1CCCCC1)C(N)=O` (mixture of isomers) [Example 16, DL-Phenylalaninamide, N-[(cyclohexylmethoxy)carbonyl]-L-phenylalanyl-α-methyl-] was 1220 nM; that for `CC(C)(C)OC(=O)N[C@@H](Cc1ccccc1)C(=O)NC(C)(Cc1ccccc1)C(=O)NCC1CCC(C(=O)O)CC1` (mixture of isomers) [Example 13, DL-Phenylalaninamide, N-[(1,1-dimethylethoxy)carbonyl]-L-phenylalanyl-N-[(4-carboxycyclohexyl)methyl]-α-methyl-, trans-] was 719 nM; that for `CC(C)(C)OC(=O)NC(CNC(Cc1ccccc1)C(N)=O)Cc1ccccc1` (stereo not drawn) [Example 22, Carbamic acid, [2-[[2-amino-2-oxo-1-(phenylmethyl)-ethyl]amino]-1-(phenylmethyl)ethyl]-, 1,1-dimethylethyl ester] was 4330 nM.
Same read-out and setting: with `CC(=O)NCCNC(=O)C(C)(Cc1ccccc1)NC(=O)[C@H](Cc1ccccc1)NC(=O)OC(C)(C)C` (mixture of isomers) [Example 10, DL-Phenylalaninamide, N-[(1,1-dimethylethoxy)carbonyl]-L-phenylalanyl-N-[2-(acetylamino)ethyl]-α-methyl-] the figure was 180 nM; with `COc1ccc(CCCCNC(=O)[C@@](C)(Cc2ccccc2)NC(=O)[C@H](Cc2ccccc2)NC(=O)OC(C)(C)C)cc1` [Example 3], 83 nM; with `CC(C)(C)OC(=O)NC(Cc1cccc(Cl)c1)C(=O)N[C@](C)(Cc1ccccc1)C(N)=O` (mixture of isomers) [Example 21, D-Phenylalaninamide, 3-chloro-N-[(1,1-dimethylethoxy)-carbonyl]-DL-phenylalanyl-α-methyl-], 904 nM.
In turn, `CC(C)CCNC(=O)C(C)(Cc1ccccc1)NC(=O)[C@H](Cc1ccccc1)NC(=O)OC(C)(C)C` (mixture of isomers) [Example 5, DL-Phenylalaninamide, N-[(1,1-dimethylethoxy)carbonyl]-L-phenylalanyl-α-methyl-N-3-methylbutyl-] yielded a 50% inhibitory concentration (IC50) of 123 nM.
For the compound `CC(C)COC(=O)N[C@@H](Cc1ccccc1)C(=O)NC(C)(Cc1ccccc1)C(N)=O` (mixture of isomers) [Example 17, DL-Phenylalaninamide, N-[(2-methylpropoxy)carbonyl]-L-phenylalanyl-α-methyl-], the IC50 was 1310 nM.
Same read-out and setting: the value for `CC(C)(C)OC(=O)N[C@@H](Cc1ccccc1)C(=O)NC(C)(Cc1ccccc1)C(=O)NCCc1ccc(Cl)cc1` (mixture of isomers) [Example 12, DL-Phenylalaninamide, N-[(1,1-dimethylethoxy)carbonyl]-L-phenylalanyl-N-[2-(4-chlorophenyl)ethyl]-α-methyl-] was 141 nM; that for `CC(C)(C)OC(=O)N[C@@H](Cc1ccccc1)C(=O)NC(C)(Cc1cccc(Cl)c1)C(N)=O` (mixture of isomers) [Example 20, DL-Phenylalaninamide, N-[(1,1-dimethylethoxy)carbonyl]-L-phenylalanyl-3-chloro-α-methyl-] was 1350 nM.
